Results: patent US20140128380A1, “METHODS OF MODULATING THE ACTIVITY OF THE MC1 RECEPTOR AND TREATMENT OF CONDITIONS RELATED TO THIS RECEPTOR” (Mimetica Pty Ltd, priority 2009, published 2014)

Target: T1, human MC1R (hMC1R) (Homo sapiens, UniProt Q01726)
T1 construct: purchased Perkin Elmer ES-195-M400UA
Test: Human MC1R radioligand binding assay (displacement of 125I-labeled NDP-MSH, Perkin Elmer hMC1R membranes)
Details: displacement of [125I]NDP-MSH, compounds tested as trifluoroacetate or hydrochloride salts or free base
Experimental: Assessments of compound binding to human MC1R (hMC1R)) by displacement of an ^125I-labeled NDP-MSH receptor ligand peptide were performed essentially as described in the data sheets produced by Perkin Elmer to accompany their frozen hMC1R membranes (Perkin Elmer catalog number ES-195-M400UA).
[^125I] NDP-MSH: radiolabeled in house and purified by HPLC:
Na ^125I (0.5 mCi, 17.4 Ci/mg) was added to 50 μL sodium phosphate (50 mM, pH 7.4) in an eppendorf tube precoated with IODOGEN. After incubation for 10 mins the phosphate buffer containing the iodine was added to NDP-MSH (10 ul at 1 mg/mL) in a separate eppendorf tube. This was incubated for a further 10 mins. The iodinated NDP-MSH was purified by HPLC on a Zorbax SB 300 column using solvent A: 0.05% TFA and solvent B: 90% acetonitrile 0.045% TFA with a linear gradient, 0-67% B over 60 mins.
Perkin Elmer frozen hMC1 membranes: catalog number ES-195-M400UA, 0.4 mL/vial; 400 microassays/vial, 0.78 mg/mL protein concentration
Vials of frozen membranes were thawed rapidly immediately before use, diluted with binding buffer and vortexed. Resuspended membranes were kept on ice until they were added to the wells of the plate.
Assays were performed in 96 well polypropylene plates. […] This was incubated for 1 hr at 37° C.

T1 sequence (Q01726 whole entry): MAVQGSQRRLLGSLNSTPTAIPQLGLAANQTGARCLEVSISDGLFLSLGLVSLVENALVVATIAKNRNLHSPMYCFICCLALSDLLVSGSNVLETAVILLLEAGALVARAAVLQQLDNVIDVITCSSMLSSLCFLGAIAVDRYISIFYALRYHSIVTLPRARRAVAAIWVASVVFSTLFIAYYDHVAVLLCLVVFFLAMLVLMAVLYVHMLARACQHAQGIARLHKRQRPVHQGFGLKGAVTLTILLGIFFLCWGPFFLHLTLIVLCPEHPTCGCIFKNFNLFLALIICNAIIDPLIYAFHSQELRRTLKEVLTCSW

`N=C(N)NCCC[C@@H]1N[C@H](CNC(=O)c2ccc3ccccc3c2)CCN(CC(C(=O)Nc2ccccc2)c2ccccc2)C1=O` (stereo partly drawn) [Compound 147, N-(((3S,5S)-3-(3-guanidinopropyl)-2-oxo-1-(3-oxo-2-phenyl-3-(phenylamino)propyl)-1,4-diazepan-5-yl)methyl)-2-naphthamide] and `CC[C@H](CN1CC[C@@H](CNC(=O)c2ccc3cc(Cl)ccc3c2)N[C@@H](CC(C)(C)N2CCCCC2)C1=O)c1ccccc1` [Compound 171, 6-chloro-N-(((3S,5S)-3-(2-methyl-2-(piperidin-1-yl)propyl)-2-oxo-1-((S)-2-phenylbutyl)-1,4-diazepan-5-yl)methyl)-2-naphthamide] cannot be ordered by IC50: less than 10 µM for the first, less than 1 µM for the second.

`N=C(N)NCCC[C@@H]1N[C@H](CNC(=O)c2cnc3ccccc3c2)CCN(CC(c2ccccc2)c2ccccc2)C1=O` [Compound 109, N-(((3S,5S)-1-(2,2-diphenylethyl)-3-(3-guanidinopropyl)-2-oxo-1,4-diazepan-5-yl)methyl)quinoline-3-carboxamide] and `CC[C@H](CN1CC[C@@H](CNC(=O)c2ccc(Cl)c(Cl)c2)N[C@@H](CCN)C1=O)c1ccccc1` [Compound 170, N-(((3S,5S)-3-(2-aminoethyl)-2-oxo-1-((S)-2-phenylbutyl)-1,4-diazepan-5-yl)methyl)-3,4-dichlorobenzamide] cannot be ordered by IC50: less than 10 µM for the first, less than 10 µM for the second.

`NC[C@@H]1N[C@H](CNC(=O)c2ccc3ccccc3c2)CCN(Cc2cc(Cl)cc(Cl)c2)C1=O` [Compound 149, N-(((3S,5S)-3-(aminomethyl)-1-(3,5-dichlorobenzyl)-2-oxo-1,4-diazepan-5-yl)methyl)-2-naphthamide] and `CC(C)(NC(=O)/C=C/c1ccc(Cl)cc1)[C@@H]1CCN(CC(c2ccccc2)c2ccccc2)C(=O)[C@H](CCN2CCCCC2)N1` [Compound 165, (E)-3-(4-chlorophenyl)-N-(2-((3S,5S)-1-(2,2-diphenylethyl)-2-oxo-3-(2-(piperidin-1-yl)ethyl)-1,4-diazepan-5-yl)propan-2-yl)acrylamide] cannot be ordered by IC50: less than 10 µM for the first, less than 10 µM for the second.

`N=C(N)NCCC[C@@H]1N[C@H](CNC(=O)c2ccc3ccccc3c2)CCN(CC(Oc2ccccc2)c2ccccc2)C1=O` (stereo partly drawn) [Compound 138, N-(((3S,5S)-3-(3-guanidinopropyl)-2-oxo-1-(2-phenoxy-2-phenylethyl)-1,4-diazepan-5-yl)methyl)-2-naphthamide] and “N-(((3R,5R)-3-(2-amino-2-methylpropyl)-2-oxo-1-((S)-2-phenylbutyl)-1,4-diazepan-5-yl)methyl)-6-chloro-2-naphthamide [Compound 169]” cannot be ordered by IC50: less than 10 µM for the first, less than 10 µM for the second.

`CNC(=O)[C@H](Cc1ccc2ccccc2c1)N1CC[C@H](CNC(=O)Cc2ccc(Cl)cc2)N[C@@H](CCCNC(=N)N)C1=O` [Compound 167, (S)-2-((3S,5R)-5-((2-(4-chlorophenyl)acetamido)methyl)-3-(3-guanidinopropyl)-2-oxo-1,4-diazepan-1-yl)-N-methyl-3-(naphthalen-2-yl)propanamide] and `CNC(=O)[C@H](Cc1ccc2ccccc2c1)N1CC[C@H]2CN(Cc3ccc(F)cc3)C(=O)N2[C@@H](CCCNC(=N)N)C1=O` [Compound 142, (S)-2-((5S,9aS)-2-(4-fluorobenzyl)-5-(3-guanidinopropyl)-3,6-dioxotetrahydro-1H-imidazo[1,5-d][1,4]diazepin-7(8H,9H,9aH)-yl)-N-methyl-3-(naphthalen-2-yl)propanamide] cannot be ordered by IC50: less than 10 µM for the first, less than 10 µM for the second.

`NCCC[C@@H]1N[C@H](CNC(=O)c2ccc3ccccc3c2)CCN(CC2(c3ccccc3)CCCCC2)C1=O` [Compound 144, N-(((3S,5S)-3-(3-aminopropyl)-2-oxo-1-((1-phenylcyclohexyl)methyl)-1,4-diazepan-5-yl)methyl)-2-naphthamide] and `CNC(=O)[C@H](Cc1ccc2ccccc2c1)N1CC[C@H](CNC(=O)[C@@H](N)Cc2ccc(Cl)cc2)N[C@@H](CCCNC(=N)N)C1=O` [Compound 173, (S)-2-amino-3-(4-chlorophenyl)-N-(((3S,5R)-3-(3-guanidinopropyl)-1-((S)-1-(methylamino)-3-(naphthalen-2-yl)-1-oxopropan-2-yl)-2-oxo-1,4-diazepan-5-yl)methyl)propanamide] cannot be ordered by IC50: less than 10 µM for the first, less than 10 µM for the second.

`CNC(=O)[C@H](Cc1ccc2ccccc2c1)N1CC[C@H](CNC(=O)[C@H](N)Cc2ccc(Cl)cc2)N[C@@H](CCCNC(=N)N)C1=O` [Compound 174, (R)-2-amino-3-(4-chlorophenyl)-N-(((3S,5R)-3-(3-guanidinopropyl)-1-((S)-1-(methylamino)-3-(naphthalen-2-yl)-1-oxopropan-2-yl)-2-oxo-1,4-diazepan-5-yl)methyl)propanamide] and `CC(=O)N[C@@H](Cc1c[nH]cn1)C(=O)N[C@@H](Cc1ccccc1)[C@@H]1CCN(CCc2c[nH]c3ccccc23)C(=O)[C@H](CCCNC(=N)N)N1` [Compound 118, (S)—N—((S)-1-((3S,5S)-1-(2-(1H-indol-3-yl)ethyl)-3-(3-guanidinopropyl)-2-oxo-1,4-diazepan-5-yl)-2-phenylethyl)-2-acetamido-3-(1H-imidazol-4-yl)propanamide] cannot be ordered by IC50: less than 10 µM for the first, less than 10 µM for the second.

`O=C(/C=C/c1ccc(Br)cc1)NC[C@@H]1CCN(CC(c2ccccc2)c2ccccc2)C(=O)[C@H](CCN2CCCCC2)N1` [Compound 161, (E)-3-(4-bromophenyl)-N-(((3S,5S)-1-(2,2-diphenylethyl)-2-oxo-3-(2-(piperidin-1-yl)ethyl)-1,4-diazepan-5-yl)methyl)acrylamide] and `CC[C@H](CN1CC[C@H](CNC(=O)c2ccc3cc(Cl)ccc3c2)N[C@H](CCN2CCCCC2)C1=O)c1ccccc1` [Compound 183, 6-chloro-N-(((3R,5R)-2-oxo-1-((S)-2-phenylbutyl)-3-(2-(piperidin-1-yl)ethyl)-1,4-diazepan-5-yl)methyl)-2-naphthamide] cannot be ordered by IC50: less than 10 µM for the first, less than 10 µM for the second.

`CC[C@H](CN1CC[C@@H](CNC(=O)c2csc(-c3ccccc3)n2)N[C@@H](CCN2CCCCC2)C1=O)c1ccccc1` [Compound 178, N-(((3S,5S)-2-oxo-1-((S)-2-phenylbutyl)-3-(2-(piperidin-1-yl)ethyl)-1,4-diazepan-5-yl)methyl)-2-phenylthiazole-4-carboxamide] and `N=C(N)NCCC[C@@H]1N[C@H](CNC(=O)c2ccc3ccccc3c2)CCN(CCC2CCCCC2)C1=O` [Compound 130, N-(((3S,5S)-1-(2-cyclohexylethyl)-3-(3-guanidinopropyl)-2-oxo-1,4-diazepan-5-yl)methyl)-2-naphthamide] cannot be ordered by IC50: less than 10 µM for the first, less than 10 µM for the second.

`CC[C@@H](CN1CC[C@H](CNC(=O)c2ccc3cc(Cl)ccc3c2)N[C@H](CCN2CCCCC2)C1=O)c1ccccc1` [Compound 182, 6-chloro-N-(((3R,5R)-2-oxo-1-((R)-2-phenylbutyl)-3-(2-(piperidin-1-yl)ethyl)-1,4-diazepan-5-yl)methyl)-2-naphthamide] and `CC(C)c1ccc(/C=C/C(=O)NC[C@@H]2CCN(CC(c3ccccc3)c3ccccc3)C(=O)[C@H](CCN3CCCCC3)N2)cc1` [Compound 155, (E)-N-(((3S,5S)-1-(2,2-diphenylethyl)-2-oxo-3-(2-(piperidin-1-yl)ethyl)-1,4-diazepan-5-yl)methyl)-3-(4-isopropylphenyl)acrylamide] cannot be ordered by IC50: less than 10 µM for the first, less than 10 µM for the second.

`N=C(N)NCCC[C@@H]1N[C@H](CNC(=O)c2ccc3ccccc3c2)CCN(c2ccc3ccccc3c2)C1=O` [Compound 125, N-(((3S,5S)-3-(3-guanidinopropyl)-1-(naphthalen-2-yl)-2-oxo-1,4-diazepan-5-yl)methyl)-2-naphthamide] and `N=C(N)NCCC[C@@H]1N[C@H](CNC(=O)c2ccc(-c3ccccc3)cc2)CCN(CC(c2ccccc2)c2ccccc2)C1=O` [Compound 108, N-(((3S,5S)-1-(2,2-diphenylethyl)-3-(3-guanidinopropyl)-2-oxo-1,4-diazepan-5-yl)methyl)biphenyl-4-carboxamide] cannot be ordered by IC50: less than 10 µM for the first, less than 10 µM for the second.

`O=C(/C=C/c1ccc(F)cc1F)NC[C@@H]1CCN(CC(c2ccccc2)c2ccccc2)C(=O)[C@H](CCN2CCCCC2)N1` [Compound 158, (E)-3-(2,4-difluorophenyl)-N-(((3S,5S)-1-(2,2-diphenylethyl)-2-oxo-3-(2-(piperidin-1-yl)ethyl)-1,4-diazepan-5-yl)methyl)acrylamide] and `N=C(N)NCCC[C@@H]1N[C@H](CNC(=O)c2cc3ccccc3[nH]2)CCN(CC(c2ccccc2)c2ccccc2)C1=O` [Compound 113, N-(((3S,5S)-1-(2,2-diphenylethyl)-3-(3-guanidinopropyl)-2-oxo-1,4-diazepan-5-yl)methyl)-1H-indole-2-carboxamide] cannot be ordered by IC50: less than 10 µM for the first, less than 10 µM for the second.

`O=C(/C=C/c1ccc(F)cc1)NC[C@@H]1CCN(CC(c2ccccc2)c2ccccc2)C(=O)[C@H](CCCNC2CCCCC2)N1` [Compound 127, (E)-N-(((3S,5S)-3-(3-(cyclohexylamino)propyl)-1-(2,2-diphenylethyl)-2-oxo-1,4-diazepan-5-yl)methyl)-3-(4-fluorophenyl)acrylamide] and `CN1[C@H](CNC(=O)c2ccc3cc(Br)ccc3c2)CCN(CC(c2ccccc2)c2ccccc2)C(=O)[C@@H]1CCCN` [Compound 105, N-(((3S,5S)-3-(3-aminopropyl)-1-(2,2-diphenylethyl)-4-methyl-2-oxo-1,4-diazepan-5-yl)methyl)-6-bromo-2-naphthamide] cannot be ordered by IC50: less than 10 µM for the first, less than 10 µM for the second.

In the case of `NCCC[C@@H]1N[C@H](CNC(=O)c2ccc(-c3ccc(Cl)cc3)o2)CCN(CC(c2ccccc2)c2ccccc2)C1=O` [Compound 128], the IC50 is reported as less than 10 µM.
